PubChem BioAssay (NCI)
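Exposure lasted 48 hours, with cells grown in 96-well plates and compounds tested at five concentrations. At the TGI there is no net growth.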

Experiments:
Experiment in all cases: NCI-60 cell line screen, 48 h
ACHN renal = test system: ACHN renal
CCRF-CEM leukemia = test system: CCRF-CEM leukemia
TK-10 renal = test system: TK-10 renal
786-0 renal = test system: 786-0 renal
KM12 colon = test system: KM12 colon
SF-295 CNS = test system: SF-295 CNS
COLO 205 colon = test system: COLO 205 colon
SR leukemia = test system: SR leukemia
HL-60(TB) leukemia = test system: HL-60(TB) leukemia
OVCAR-8 ovarian = test system: OVCAR-8 ovarian
NCI-H460 lung = test system: NCI-H460 lung
UACC-257 melanoma = test system: UACC-257 melanoma
HCT-116 colon = test system: HCT-116 colon
A549 NSCLC = test system: A549 NSCLC
IGROV1 ovarian = test system: IGROV1 ovarian
K-562 leukemia = test system: K-562 leukemia
M14 melanoma = test system: M14 melanoma
DLD-1 colon = test system: DLD-1 colon
SNB-75 CNS = test system: SNB-75 CNS
LXFL 529 NSCLC = test system: LXFL 529 NSCLC
HOP-18 NSCLC = test system: HOP-18 NSCLC
UO-31 renal = test system: UO-31 renal
SF-268 CNS = test system: SF-268 CNS
U251 CNS = test system: U251 CNS
KM20L2 colon = test system: KM20L2 colon
CAKI-1 renal = test system: CAKI-1 renal
HCC-2998 colon = test system: HCC-2998 colon
UACC-62 melanoma = test system: UACC-62 melanoma
OVCAR-4 ovarian = test system: OVCAR-4 ovarian
OVCAR-5 ovarian = test system: OVCAR-5 ovarian
MOLT-4 leukemia = test system: MOLT-4 leukemia
HOP-92 NSCLC = test system: HOP-92 NSCLC
SNB-19 CNS = test system: SNB-19 CNS
OVCAR-3 ovarian = test system: OVCAR-3 ovarian
SN12C renal = test system: SN12C renal
MALME-3M melanoma = test system: MALME-3M melanoma
LOX IMVI melanoma = test system: LOX IMVI melanoma
M19-MEL melanoma = test system: M19-MEL melanoma
SK-OV-3 ovarian = test system: SK-OV-3 ovarian
NCI-H226 lung = test system: NCI-H226 lung
HT29 colon = test system: HT29 colon
SNB-78 CNS = test system: SNB-78 CNS
NCI-H23 lung = test system: NCI-H23 lung
SF-539 CNS = test system: SF-539 CNS
EKVX NSCLC = test system: EKVX NSCLC
SW-620 colon = test system: SW-620 colon
SK-MEL-5 melanoma = test system: SK-MEL-5 melanoma
DMS 114 small cell lung = test system: DMS 114 small cell lung
SK-MEL-2 melanoma = test system: SK-MEL-2 melanoma
RPMI-8226 leukemia = test system: RPMI-8226 leukemia
NCI-H522 lung = test system: NCI-H522 lung
SK-MEL-28 melanoma = test system: SK-MEL-28 melanoma
A498 renal = test system: A498 renal
RXF 393 renal = test system: RXF 393 renal
HCT-15 colon = test system: HCT-15 colon
HOP-62 NSCLC = test system: HOP-62 NSCLC
DMS 273 small cell lung = test system: DMS 273 small cell lung
RXF-631 renal = test system: RXF-631 renal
XF 498 CNS = test system: XF 498 CNS

Measured: TGI

COc1cc2c(c(OC)c1OC)-c1ccc(SC)c(=O)cc1[C@@H](NCc1cccc([N+](=O)[O-])c1)CC2
28 µM: SF-268 CNS
43.8 µM: OVCAR-8 ovarian
17.8 µM: UACC-62 melanoma
34.4 µM: 786-0 renal
38.1 µM: LOX IMVI melanoma
0.0754 µM: KM12 colon
< 0.01 µM: COLO 205 colon | HCT-116 colon | U251 CNS | KM20L2 colon | HCC-2998 colon | OVCAR-3 ovarian | NCI-H226 lung | HT29 colon | NCI-H23 lung
2.39 µM: K-562 leukemia
13.1 µM: M14 melanoma
0.17 µM: SF-539 CNS
> 100 µM: ACHN renal | CCRF-CEM leukemia | TK-10 renal | SF-295 CNS | SR leukemia | HL-60(TB) leukemia | UACC-257 melanoma | A549 NSCLC | IGROV1 ovarian | DLD-1 colon | SNB-75 CNS | LXFL 529 NSCLC | HOP-18 NSCLC | UO-31 renal | CAKI-1 renal | OVCAR-4 ovarian | OVCAR-5 ovarian | MOLT-4 leukemia | HOP-92 NSCLC | SNB-19 CNS | SN12C renal | MALME-3M melanoma | M19-MEL melanoma | SK-OV-3 ovarian | SNB-78 CNS | EKVX NSCLC | SW-620 colon
12.4 µM: NCI-H460 lung

CN(C)C(=S)/N=c1\ss/c(=N\C(=S)N(C)C)n1Cc1ccco1
> 100 µM: SK-MEL-5 melanoma | ACHN renal | CCRF-CEM leukemia | TK-10 renal | 786-0 renal | KM12 colon | COLO 205 colon | SR leukemia | HL-60(TB) leukemia | OVCAR-8 ovarian | NCI-H460 lung | UACC-257 melanoma | DMS 114 small cell lung | SK-MEL-2 melanoma | RPMI-8226 leukemia | HCT-116 colon | A549 NSCLC | IGROV1 ovarian | K-562 leukemia | M14 melanoma | DLD-1 colon | NCI-H522 lung | SNB-75 CNS | LXFL 529 NSCLC | SK-MEL-28 melanoma | HOP-18 NSCLC | UO-31 renal | SF-268 CNS | U251 CNS | KM20L2 colon | CAKI-1 renal | HCC-2998 colon | UACC-62 melanoma | OVCAR-4 ovarian | MOLT-4 leukemia | SNB-19 CNS | SN12C renal | MALME-3M melanoma | A498 renal | RXF 393 renal | HCT-15 colon | M19-MEL melanoma | SK-OV-3 ovarian | NCI-H226 lung | SNB-78 CNS | HOP-62 NSCLC | SF-539 CNS | DMS 273 small cell lung | SW-620 colon

C[N+](C)(C)CC(=O)N/N=C(/Cc1nc2ccc([N+](=O)[O-])cc2[nH]c1=O)C(=O)Nc1cc(C(F)(F)F)ccc1Cl
> 100 µM: SK-MEL-5 melanoma | ACHN renal | CCRF-CEM leukemia | TK-10 renal | 786-0 renal | KM12 colon | SF-295 CNS | COLO 205 colon | SR leukemia | HL-60(TB) leukemia | OVCAR-8 ovarian | NCI-H460 lung | UACC-257 melanoma | DMS 114 small cell lung | SK-MEL-2 melanoma | RPMI-8226 leukemia | HCT-116 colon | A549 NSCLC | IGROV1 ovarian | K-562 leukemia | M14 melanoma | DLD-1 colon | NCI-H522 lung | SK-MEL-28 melanoma | UO-31 renal | SF-268 CNS | KM20L2 colon | CAKI-1 renal | HCC-2998 colon | UACC-62 melanoma | OVCAR-4 ovarian | OVCAR-5 ovarian | MOLT-4 leukemia | HOP-92 NSCLC | RXF-631 renal | SNB-19 CNS | OVCAR-3 ovarian | SN12C renal | MALME-3M melanoma | A498 renal | RXF 393 renal | M19-MEL melanoma | SK-OV-3 ovarian | HT29 colon | NCI-H23 lung | HOP-62 NSCLC | SF-539 CNS | EKVX NSCLC | SW-620 colon

Cn1nc2ccc3nccc(NCCNCCO)c3c2n1
85.8 µM: NCI-H226 lung
87.5 µM: RXF 393 renal
45.2 µM: NCI-H460 lung
43.1 µM: LOX IMVI melanoma
89.4 µM: HCT-116 colon
> 100 µM: SK-MEL-5 melanoma | ACHN renal | CCRF-CEM leukemia | TK-10 renal | 786-0 renal | KM12 colon | SF-295 CNS | SR leukemia | HL-60(TB) leukemia | OVCAR-8 ovarian | RPMI-8226 leukemia | A549 NSCLC | IGROV1 ovarian | K-562 leukemia | M14 melanoma | DLD-1 colon | NCI-H522 lung | SNB-75 CNS | LXFL 529 NSCLC | SK-MEL-28 melanoma | SF-268 CNS | U251 CNS | KM20L2 colon | CAKI-1 renal | HCC-2998 colon | UACC-62 melanoma | OVCAR-4 ovarian | OVCAR-5 ovarian | HOP-92 NSCLC | SNB-19 CNS | OVCAR-3 ovarian | SN12C renal | MALME-3M melanoma | HCT-15 colon | M19-MEL melanoma | SK-OV-3 ovarian | SNB-78 CNS | NCI-H23 lung | HOP-62 NSCLC | XF 498 CNS | SF-539 CNS | SW-620 colon
70 µM: HT29 colon
90.9 µM: UO-31 renal
44 µM: COLO 205 colon
69 µM: MOLT-4 leukemia
76.9 µM: UACC-257 melanoma
